Source: patent US7862807B2, “Dendrimers as molecular translocators” (University of California, San Diego, priority 2002, dated 2011)

Key:
[1] = Solubility in H2O noted on isolation; format: physicochemical; settings: isolated salt
[2] = test system: HeLa S3 human epithelioid cervical carcinoma cells; test: Cellular uptake of fluorescein-labeled dendrimers quantified by flow cytometry (FACS); format: cell-based; settings: for delivery to HeLa S3 cells (in words): 250 nM to 50 μM; for Percentage of Cellular Uptake: 4 hours, 37° C., average of two experiments; for saturation of uptake reached with increasing concentration: concentration increased up to 50 μM
Procedure: HeLa S3, human epithelioid cervical carcinoma cells of approximately 50% confluency were treated with concentrations varying from 250 nM to 50 μM of each of the molecular transporters 10, 11, 12, 13, and 41 at 37° C. The molecular transporters were directly added to the media (Dulbecco's modified eagle medium containing 10% fetal bovine serum and 1× antibiotic-antimycotic), and the delivery to the cells was visualized by microscopy.
Quantification of the uptake of the molecular transporter into the cells was performed by flow cytometry 4 hours after treatment. Adherent cells, grown on 6 well plates, were displaced with trypsin, after which the cells were washed with phosphate-buffered saline (PBS). The final cell pellet was collected by centrifugation and resuspended in PBS to a concentration of approximately 1×10^6 cells/mL. A minimum of 20,000 cell events were counted and analyzed using the FACSCalibur and CellQuest brand software (BD Biosciences, San Jose, Calif.).

HeLa S3 cells = test: Sulphorhodamine B (SRB) cytotoxicity assay; format: cell-based, human; settings: 4 hour treatment, concentrations up to 50 μM
Procedure: The cells were treated with varying concentrations (250 nM to 50 μM) of compound 12 for 4 hours at 37° C. The cells were fixed with trichloroacetic acid and were then subsequently stained with SRB dye. The cells were washed with water, and the SRB-bound complexes were solubilized in Tris buffer. The absorbance at 572 nm was measured in each sample.

SMILES	solubility in H2O [1]	delivery to HeLa S3 cells (in words) [2]	Percentage of Cellular Uptake ([2]; 250 nM)	Percentage of Cellular Uptake ([2]; 500 nM)	Percentage of Cellular Uptake ([2]; 1 μM)	Percentage of Cellular Uptake ([2]; 5 μM)	Percentage of Cellular Uptake ([2]; 10 μM)	Percentage of Cellular Uptake ([2]; 25 μM)	Percentage of Cellular Uptake ([2]; 50 μM)	saturation of uptake reached with increasing concentration [2]	cytotoxic effect / cell lysis (HeLa S3 cells)
Cl.Cl.Cl.Cl.Cl.Cl.Cl.Cl.Cl.Cl.Cl.Cl.N=C(N)NCCNC(=O)CCOCC(COCCC(=O)NCCNC(=N)N)(COCCC(=O)NCCNC(=N)N)NC(=O)CCNC(=O)CCOCC(COCCC(=O)NCCC(=O)NC(COCCC(=O)NCCNC(=N)N)(COCCC(=O)NCCNC(=N)N)COCCC(=O)NCCNC(=N)N)NC(=O)CCNC(=O)CCOCC(COCCC(=O)NCCC(=O)NC(COCCC(=O)NCCC(=O)NC(COCCC(=O)NCCNC(=N)N)(COCCC(=O)NCCNC(=N)N)COCCC(=O)NCCNC(=N)N)COCCC(=O)NCCC(=O)NC(COCCC(=O)NCCNC(=N)N)(COCCC(=O)NCCNC(=N)N)COCCC(=O)NCCNC(=N)N)NC(=O)CCNC(=S)Nc1ccc(-c2c3ccc(=O)cc-3oc3cc(O)ccc23)c(C(=O)O)c1 (stereo not shown) [Compound 13]	barely soluble in H2O	excellent delivery	3.22%	6.59%	11.91%	90.79%	96.77%	99.11%	99.82%	approximately 100%	
Cl.Cl.Cl.Cl.Cl.Cl.Cl.Cl.Cl.N=C(N)NCCNC(=O)CCOCC(COCCC(=O)NCCNC(=N)N)(COCCC(=O)NCCNC(=N)N)NC(=O)CCNC(=O)CCOCC(COCCC(=O)NCCC(=O)NC(COCCC(=O)NCCNC(=N)N)(COCCC(=O)NCCNC(=N)N)COCCC(=O)NCCNC(=N)N)(COCCC(=O)NCCC(=O)NC(COCCC(=O)NCCNC(=N)N)(COCCC(=O)NCCNC(=N)N)COCCC(=O)NCCNC(=N)N)NC(=O)CCNC(=S)Nc1ccc(-c2c3ccc(=O)cc-3oc3cc(O)ccc23)c(C(=O)O)c1 (stereo not shown) [Compound 12]		excellent delivery	9.07%	8.71%	9.17%	63.52%	91.74%	98.61%	99.75%	approximately 100%	no cytotoxic effect and did not cause cell lysis
Cl.Cl.Cl.Cl.Cl.Cl.N=C(N)NCCNC(=O)CCOCC(COCCC(=O)NCCNC(=N)N)(COCCC(=O)NCCNC(=N)N)NC(=O)CCNC(=O)c1cc(C(=O)NCCNC(=O)CCNC(=S)Nc2ccc(-c3c4ccc(=O)cc-4oc4cc(O)ccc34)c(C(=O)O)c2)cc(C(=O)NCCC(=O)NC(COCCC(=O)NCCNC(=N)N)(COCCC(=O)NCCNC(=N)N)COCCC(=O)NCCNC(=N)N)c1 (stereo not shown) [Compound 11]		excellent delivery	4.56%	7.52%	11.74%	94.54%	98.55%	99.79%	99.87%	approximately 100%	
N=C(N)NCCNC(=O)CCCCCNC(=O)CCNC(=S)Nc1ccc(-c2c3ccc(=O)cc-3oc3cc(O)ccc23)c(C(=O)O)c1 [Compound 41, 5-(3-{2-[5-(2-Guanidinoethylcarbamoyl)-pentylcarbamoyl]-ethyl}-thioureido)-2-(6-hydroxy-3-oxo-3H-xanthen-9-yl)-benzoic acid]										approximately 100%	
Cl.Cl.Cl.N=C(N)NCCNC(=O)CCOCC(COCCC(=O)NCCNC(=N)N)(COCCC(=O)NCCNC(=N)N)NC(=O)CCNC(=S)Nc1ccc(-c2c3ccc(=O)cc-3oc3cc(O)ccc23)c(C(=O)O)c1 (stereo not shown) [Compound 10]										approximately 100%	
